From US12480075B2, “Perfume delivery system” (FIRMENICH SA, priority 2019, dated 2025)

Assay: Odor threshold concentration (Log T / Log ODT) by gas chromatograph sniff port with panelists
Design: species or system human
Settings: common logarithm of odor threshold concentration of the ingredient
Method: “High impact perfume raw materials” should be understood as perfume raw materials having a Log T<−4. The odor threshold concentration of a chemical compound is determined in part by its shape, polarity, partial charges and molecular mass. For convenience, the threshold concentration is presented as the common logarithm of the threshold concentration, i.e., Log [Threshold] (“Log T”).
The odor threshold concentration of a perfuming compound is determined by using a gas chromatograph (“GC”). Specifically, the gas chromatograph is calibrated to determine the exact volume of the perfume oil ingredient injected by the syringe, the precise split ratio, and the hydrocarbon response using a hydrocarbon standard of known concentration and chain-length distribution. The air flow rate is accurately measured and, assuming the duration of a human inhalation to last 12 seconds, the sampled volume is calculated. […] To determine the threshold concentration, solutions are delivered to the sniff port at the back-calculated concentration. A panelist sniffs the GC effluent and identifies the retention time when odor is noticed. The average across all panelists determines the odor threshold concentration of the perfuming compound. The determination of odor threshold is described in more detail in C.

Row | Compound | Log ODT
1 | C=CCCC(=O)C1=CCCC(C)(C)C1 | <−4
2 | CC12CCC(CC1)C(C)(C)O2 | >−4
3 | COc1nccnc1CCCC(C)C | <−4
4 | CC1(C)CC=C(CCC=O)CC1 | >−4
5 | CC(=O)/C=C/C1=C(C)CCCC1(C)C | <−4
6 | 1-OXA-12-CYCLOHEXADECEN-2-ONE (A) + 1-OXA-13-CYCLOHEXADECEN-2-ONE (B) | >−4
7 | 2-METHYLBUTYL SALICYLATE (A) + PENTYL SALICYLATE (B) | >−4
8 | 3,5,6-TRIMETHYL-3-CYCLOHEXENE-1-CARBALDEHYDE (A) + 2,4,6-TRIMETHYL-3-CYCLOHEXENE-1 -CARBALDEHYDE (B) | >−4
9 | 3,7-DIMETHYL-2,6-NONADIENENITRILE (A) + 3,7-DIMETHYL-3,6-NONADIENENITRILE (B) | >−4
10 | 3-(4-ETHYLPHENYL)-2,2-DIMETHYLPROPANAL (A) + 3-(2-ETHYLPHENYL)-2,2-DIMETHYLPROPANAL (B) | >−4
11 | 10-UNDECENAL (A) + (9E)-9-UNDECENAL (B) + (9Z)-9-UNDECENAL (C) | <−4
12 | C/C=C/C(=O)[C@@H]1[C@@H](C)C=CCC1(C)C (racemic) | <−4
13 | CC(C)=CCCC(C)C=O (racemic) | >−4
14 | C=CC(C)CCCC(C)(C)O (racemic) | >−4
15 | CC(C)CCCC(C)CCO (racemic) | >−4
16 | CC(C)=CCCC(C)CC=O (racemic) | >−4
17 | C=CC(C)(CCC=C(C)C)OC(C)=O (racemic) [(+−)-1,5-DIMETHYL-1-VINYL-4-HEXENYL ACETATE] | >−4
18 | CC1=CCC(C(C)(C)S)CC1 (racemic) [(+−)-2-(4-METHYL-3-CYCLOHEXEN-1-YL)-2-PROPANETHIOL] | <−4
19 | CCCCCCCCCC(C)C=O (racemic) [(+−)-2-METHYLUNDECANAL] | <-4
20 | CC(C)c1cccc(C(C)CC=O)c1 (racemic) [(+−)-3-(3-ISOPROPYL-1-PHENYL)BUTANAL] | <−4
21 | CCCCCCCC1CCC(=O)O1 (racemic) [(+−)-5-HEPTYLDIHYDRO-2(3H)-FURANONE] | <−4
22 | CC/C=C(\C)C(O)CCCCC (racemic) [(+−)-(E)-4-METHYL-3-DECEN-5-OL] | >−4
23 | CCOC(=O)C(C)CC (racemic) [(+−)-ETHYL 2-METHYLBUTANOATE] | >−4
24 | CCCCC[C@H]1C(=O)CC[C@@H]1CC(=O)OC (racemic) [METHYL 2-((1RS,2RS)-3-OXO-2-PENTYLCYCLOPENTYL)ACETATE] | >−4
25 | CC1=CCC2C[C@@H]1C2(C)C (single isomer, unassigned; (-)) | >−4
26 | c1ccc(Oc2ccccc2)cc1 [1,1′-OXYDIBENZENE] | >−4

Row | Compound | Log ODT
27 | COc1ccc(C)cc1 [1-METHOXY-4-METHYLBENZENE] | >−4
28 | COc1ccc2ccccc2c1 [2-METHOXYNAPHTHALENE] | <−4
29 | CC(=O)OCCc1ccccc1 [2-PHENYLETHYL ACETATE] | >−4
30 | CC(=O)OCCC(C)CCC=C(C)C (stereo not drawn) [3,7-DIMETHYL-6-OCTENYL ACETATE] | >−4
31 | CC1=CC2CC(C=O)C1CC2C(C)C (stereo not drawn) [8-ISOPROPYL-6-METHYL-BICYCLO[2.2.2]OCT-5-ENE-2-CARBALDEHYDE] | <−4
32 | CC(=O)O[C@@H]1CC2CC[C@]1(C)C2(C)C [(1R,2R)-1,7,7-TRIMETHYL-BICYCLO[2.2.1]HEPT-2-YL ACETATE] | >−4
33 | COCCc1ccccc1 [(2-METHOXYETHYL)BENZENE] | >−4
34 | CC/C=C\CCOC(C)=O [(Z)-3-HEXENYL ACETATE] | >−4
35 | CC/C=C\CCOC(=O)C(C)C [(Z)-3-HEXENYL ISOBUTYRATE] | >−4
36 | CC1(C)CCC[C@]2(C)[C@H]3CCO[C@]3(C)CC[C@@H]12 [(−)-(3AR,5AS,9AS,9BR)-3A,6,6,9A-TETRAMETHYLDODECAHYDRONAPHTHO[2,1-B]FURAN] | <−4
37 | CCCCCCCCCC=O [DECANAL] | >−4
38 | CCCCCCOC(=O)c1ccccc1O [HEXYL 2-HYDROXYBENZOATE] | >-4
39 | CCCCCCOC(C)=O [HEXYL ACETATE] | >−4
40 | CCCCCCCCCC(C)=O [Microcapsules 2-UNDECANONE, 2-UNDECANONE] | >−4
41 | CCCCCCCC=O [OCTANAL] | >−4
42 | O=C1CCCCCCCCCCCCCCO1 [OXACYCLOHEXADECAN-2-ONE] | >−4
43 | (1RS,2RS)-2,4-DIMETHYL-3-CYCLOHEXENE-1-CARBALDEHYDE (A) + (1RS,2SR)-2,4-DIMETHYL-3-CYCLOHEXENE-1-CARBALDEHYDE (B) | >−4
44 | (2RS,4SR)-4-METHYL-2-(2-METHYL-1-PROPEN-1-YL)TETRAHYDRO-2H-PYRAN (A) + (2RS,4RS)-4-METHYL-2-(2-METHYL-1-PROPEN-1-YL)TETRAHYDRO-2H-PYRAN (B) | >−4
45 | (2Z)-1,1-DIETHOXY-3,7-DIMETHYL-2,6-OCTADIENE (A) + (2E)-1,1-DIETHOXY-3,7-DIMETHYL-2,6-OCTADIENE (B) | >−4
46 | (2Z)-2-TRIDECENENITRILE (A) + (3Z)-3-TRIDECENENITRILE (B) + (3E)-3-TRIDECENENITRILE (C) + (2E)-2-TRIDECENENITRILE (D) | <−4
47 | (+)-(3S)-3-[(1R)-4-METHYL-3-CYCLOHEXEN-1-YL]BUTANAL (A) + (+)-(3R)-3-[(1R)-4-METHYL-3-CYCLOHEXEN-1-YL]BUTANAL | >−4
48 | (+−)-4-METHYLENE-2-PHENYLTETRAHYDRO-2H-PYRAN (A) + (+−)-4-METHYL-6-PHENYL-3,6-DIHYDRO-2H-PYRAN (B) + (+−)-4-METHYL-2-PHENYL-3,6-DIHYDRO-2H-PYRAN (C) | <−4
49 | (+−)-(3E)-3-METHYL-4-(2,6,6-TRIMETHYL-2-CYCLOHEXEN-1-YL)-3-BUTEN-2-ONE (A) + (+−)-(1E)-1-(2,6,6-TRIMETHYL-2-CYCLOHEXEN-1-YL)-1-PENTEN-3-ONE (B) | <−4
50 | .ALPHA.-DIHYDROTERPINEOL (A) + .BETA.-DIHYDROTERPINEOL (B) | >−4
51 | TRICYCLO[5.2.1.0~2,6~]DEC-3-EN-8-YL ACETATE (A) + TRICYCLO[5.2.1.0~2,6~]DEC-4-EN-8-YL ACETATE (B) | >−4
